In ChEMBL document CHEMBL5303573, “Mapping human microbiome drug metabolism by gut bacteria and their genes” (Nature, 2019):

How the values were obtained:
[1] = The drug is tested on Bifidobacterium longum subsp. Infantis strain: CCUG52486 for biotransformation. The drug concentrations were measured before and after a 12-h incubation by liquid-chromatography-coupled mass spectrometry (LC–MS); conditions: 2 µM
[2] = The drug is tested on Bifidobacterium ruminantium strain: fecal isolate for biotransformation. The drug concentrations were measured before and after a 12-h incubation by liquid-chromatography-coupled mass spectrometry (LC–MS); conditions: 2 µM
[3] = The drug is tested on Collinsella aerofaciens strain: ATCC25986 for biotransformation. The drug concentrations were measured before and after a 12-h incubation by liquid-chromatography-coupled mass spectrometry (LC–MS); conditions: 2 µM
[4] = The drug is tested on Collinsella intestinalis strain: DSM13280 for biotransformation. The drug concentrations were measured before and after a 12-h incubation by liquid-chromatography-coupled mass spectrometry (LC–MS); conditions: 2 µM
[5] = The drug is tested on Bacteroides caccae strain: ATCC43185 for biotransformation. The drug concentrations were measured before and after a 12-h incubation by liquid-chromatography-coupled mass spectrometry (LC–MS); conditions: 2 µM
[6] = The drug is tested on Bacteroides cellulosilyticus strain: DSM14838 for biotransformation. The drug concentrations were measured before and after a 12-h incubation by liquid-chromatography-coupled mass spectrometry (LC–MS); conditions: 2 µM
[7] = The drug is tested on Bacteroides finegoldii strain: DSM17565 for biotransformation. The drug concentrations were measured before and after a 12-h incubation by liquid-chromatography-coupled mass spectrometry (LC–MS); conditions: 2 µM
[8] = The drug is tested on Bacteroides fragilis strain: HMW610 for biotransformation. The drug concentrations were measured before and after a 12-h incubation by liquid-chromatography-coupled mass spectrometry (LC–MS); conditions: 2 µM
[9] = The drug is tested on Bacteroides fragilis strain: HMW615 for biotransformation. The drug concentrations were measured before and after a 12-h incubation by liquid-chromatography-coupled mass spectrometry (LC–MS); conditions: 2 µM
[10] = The drug is tested on Bacteroides fragilis strain: ATCC43859 for biotransformation. The drug concentrations were measured before and after a 12-h incubation by liquid-chromatography-coupled mass spectrometry (LC–MS); conditions: 2 µM
[11] = The drug is tested on Bacteroides pectinophilus strain: ATCC43243 for biotransformation. The drug concentrations were measured before and after a 12-h incubation by liquid-chromatography-coupled mass spectrometry (LC–MS); conditions: 2 µM
[12] = The drug is tested on Bacteroides uniformis strain: ATCC8492 for biotransformation. The drug concentrations were measured before and after a 12-h incubation by liquid-chromatography-coupled mass spectrometry (LC–MS); conditions: 2 µM
[13] = The drug is tested on Bacteroides sp. WH2 strain: WH2 for biotransformation. The drug concentrations were measured before and after a 12-h incubation by liquid-chromatography-coupled mass spectrometry (LC–MS); conditions: bacteroides sp. wh2, 12 h, 2 µM
[14] = The drug is tested on Anaerococcus hydrogenalis strain: DSM7454 for biotransformation. The drug concentrations were measured before and after a 12-h incubation by liquid-chromatography-coupled mass spectrometry (LC–MS); conditions: 2 µM
[15] = The drug is tested on Anaerotruncus colihominis strain: DSM17241 for biotransformation. The drug concentrations were measured before and after a 12-h incubation by liquid-chromatography-coupled mass spectrometry (LC–MS); conditions: 2 µM
[16] = The drug is tested on Blautia luti strain: DSM14534 for biotransformation. The drug concentrations were measured before and after a 12-h incubation by liquid-chromatography-coupled mass spectrometry (LC–MS); assay type: ADME; design: dose 2 uM, timepoint 0 vs 12 hours; conditions: 2 µM
[17] = The drug is tested on Clostridium asparagiforme strain: DSM15981 for biotransformation. The drug concentrations were measured before and after a 12-h incubation by liquid-chromatography-coupled mass spectrometry (LC–MS); assay type: ADME; design: dose 2 uM, timepoint 0 vs 12 hours; conditions: enterocloster asparagiformis, 2 µM
[18] = The drug is tested on Clostridium hathewayi strain: DSM13479 for biotransformation. The drug concentrations were measured before and after a 12-h incubation by liquid-chromatography-coupled mass spectrometry (LC–MS); conditions: hungatella hathewayi, 2 µM
[19] = The drug is tested on Clostridium ramosum strain: DSM1402 for biotransformation. The drug concentrations were measured before and after a 12-h incubation by liquid-chromatography-coupled mass spectrometry (LC–MS); conditions: thomasclavelia ramosa, 2 µM
[20] = The drug is tested on Clostridium scindens strain: ATCC35704 for biotransformation. The drug concentrations were measured before and after a 12-h incubation by liquid-chromatography-coupled mass spectrometry (LC–MS); conditions: 2 µM
[21] = The drug is tested on Clostridium spiroforme strain: DSM1552 for biotransformation. The drug concentrations were measured before and after a 12-h incubation by liquid-chromatography-coupled mass spectrometry (LC–MS); conditions: thomasclavelia spiroformis, 2 µM
[22] = The drug is tested on Clostridium symbiosum strain: ATCC14940 for biotransformation. The drug concentrations were measured before and after a 12-h incubation by liquid-chromatography-coupled mass spectrometry (LC–MS); conditions: 2 µM
[23] = The drug is tested on Eubacterium hallii strain: DSM3353 for biotransformation. The drug concentrations were measured before and after a 12-h incubation by liquid-chromatography-coupled mass spectrometry (LC–MS); conditions: anaerobutyricum hallii, 2 µM
[24] = The drug is tested on Eubacterium rectale strain: ATCC33656 for biotransformation. The drug concentrations were measured before and after a 12-h incubation by liquid-chromatography-coupled mass spectrometry (LC–MS); conditions: agathobacter rectalis, 2 µM
[25] = The drug is tested on Subdoligranulum variabile strain: DSM15176 for biotransformation. The drug concentrations were measured before and after a 12-h incubation by liquid-chromatography-coupled mass spectrometry (LC–MS); conditions: 2 µM
[26] = The drug is tested on Edwardsiella tarda strain: ATCC23685 for biotransformation. The drug concentrations were measured before and after a 12-h incubation by liquid-chromatography-coupled mass spectrometry (LC–MS); conditions: 2 µM
[27] = The drug is tested on Enterobacter cancerogenus strain: ATCC35316 for biotransformation. The drug concentrations were measured before and after a 12-h incubation by liquid-chromatography-coupled mass spectrometry (LC–MS); conditions: 2 µM
[28] = The drug is tested on Providencia rettgeri strain: DSM1131 for biotransformation. The drug concentrations were measured before and after a 12-h incubation by liquid-chromatography-coupled mass spectrometry (LC–MS); assay type: ADME; design: dose 2 uM, timepoint 0 vs 12 hours; conditions: 2 µM
[29] = The drug is tested on Providencia stuartii strain: ATCC25827 for biotransformation. The drug concentrations were measured before and after a 12-h incubation by liquid-chromatography-coupled mass spectrometry (LC–MS); conditions: 2 µM
[30] = bifidobacterium adolescentis, 12 h, 2 µM
Description: The drug is tested on Bifidobacterium adolescentis strain: ATCC 15703 for biotransformation. The drug concentrations were measured before and after a 12-h incubation by liquid-chromatography-coupled mass spectrometry (LC–MS)

[31] = bacteroides eggerthii, 12 h, 2 µM
Description: The drug is tested on Bacteroides eggerthii strain: DSM20697 for biotransformation. The drug concentrations were measured before and after a 12-h incubation by liquid-chromatography-coupled mass spectrometry (LC–MS)

[32] = bacteroides fragilis, 12 h, 2 µM
Description: The drug is tested on Bacteroides fragilis strain: NCTC 9343 for biotransformation. The drug concentrations were measured before and after a 12-h incubation by liquid-chromatography-coupled mass spectrometry (LC–MS)

[33] = bacteroides fragilis, 12 h, 2 µM; remark: listed apart in the source
Description: The drug is tested on Bacteroides fragilis strain: 3397 (T10) for biotransformation. The drug concentrations were measured before and after a 12-h incubation by liquid-chromatography-coupled mass spectrometry (LC–MS)

[34] = bacteroides fragilis, 12 h, 2 µM; remark: listed apart in the source
Description: The drug is tested on Bacteroides fragilis strain: DS-208 for biotransformation. The drug concentrations were measured before and after a 12-h incubation by liquid-chromatography-coupled mass spectrometry (LC–MS)

[35] = bacteroides intestinalis, 12 h, 2 µM
Description: The drug is tested on Bacteroides intestinalis strain: DSM17393 for biotransformation. The drug concentrations were measured before and after a 12-h incubation by liquid-chromatography-coupled mass spectrometry (LC–MS)

[36] = bacteroides stercoris, 12 h, 2 µM
Description: The drug is tested on Bacteroides stercoris strain: ATCC43183 for biotransformation. The drug concentrations were measured before and after a 12-h incubation by liquid-chromatography-coupled mass spectrometry (LC–MS)

[37] = bacteroides thetaiotaomicron, 12 h, 2 µM
Description: The drug is tested on Bacteroides thetaiotaomicron strain: 3731 for biotransformation. The drug concentrations were measured before and after a 12-h incubation by liquid-chromatography-coupled mass spectrometry (LC–MS)

[38] = bacteroides thetaiotaomicron, 12 h, 2 µM; remark: listed apart in the source
Description: The drug is tested on Bacteroides thetaiotaomicron strain: 7330 for biotransformation. The drug concentrations were measured before and after a 12-h incubation by liquid-chromatography-coupled mass spectrometry (LC–MS)

[39] = parabacteroides distasonis, 12 h, 2 µM
Description: The drug is tested on Parabacteroides distasonis strain: ATCC8503 for biotransformation. The drug concentrations were measured before and after a 12-h incubation by liquid-chromatography-coupled mass spectrometry (LC–MS)

[40] = parabacteroides johnsonii, 12 h, 2 µM
Description: The drug is tested on Parabacteroides johnsonii strain: DSM18315 for biotransformation. The drug concentrations were measured before and after a 12-h incubation by liquid-chromatography-coupled mass spectrometry (LC–MS)

[41] = segatella copri, 12 h, 2 µM
Description: The drug is tested on Prevotella copri strain: DSM18205 for biotransformation. The drug concentrations were measured before and after a 12-h incubation by liquid-chromatography-coupled mass spectrometry (LC–MS)

[42] = anaerostipes sp., 12 h, 2 µM
Description: The drug is tested on Anaerostipes sp. strain: fecal isolate for biotransformation. The drug concentrations were measured before and after a 12-h incubation by liquid-chromatography-coupled mass spectrometry (LC–MS)

[43] = enterocloster bolteae, 12 h, 2 µM
Description: The drug is tested on Clostridium bolteae strain: ATCCBAA-613 for biotransformation. The drug concentrations were measured before and after a 12-h incubation by liquid-chromatography-coupled mass spectrometry (LC–MS)

[44] = clostridioides difficile, 12 h, 2 µM
Description: The drug is tested on Clostridium difficile strain: 120 for biotransformation. The drug concentrations were measured before and after a 12-h incubation by liquid-chromatography-coupled mass spectrometry (LC–MS)

[45] = limosilactobacillus reuteri cf48-3a, 12 h, 2 µM
Description: The drug is tested on Lactobacillus reuteri CF48-3A strain: BEI HM-102 for biotransformation. The drug concentrations were measured before and after a 12-h incubation by liquid-chromatography-coupled mass spectrometry (LC–MS)

- Bacterial Biotransformation [1]: Compound NOT metabolized
- Bacterial Biotransformation [2]: Compound metabolized
- Bacterial Biotransformation [3]: Compound NOT metabolized
- Bacterial Biotransformation [4]: Compound NOT metabolized
- Bacterial Biotransformation [5]: Compound NOT metabolized
- Bacterial Biotransformation [6]: Compound NOT metabolized
- Bacterial Biotransformation [7]: Compound NOT metabolized
- Bacterial Biotransformation [8]: Compound NOT metabolized
- Bacterial Biotransformation [9]: Compound NOT metabolized
- Bacterial Biotransformation [10]: Compound NOT metabolized
- Bacterial Biotransformation [11]: Compound metabolized
- Bacterial Biotransformation [12]: Compound metabolized
- Bacterial Biotransformation [13]: Compound NOT metabolized
- Bacterial Biotransformation [14]: Compound NOT metabolized
- Bacterial Biotransformation [15]: Compound metabolized
- Bacterial Biotransformation [16]: Compound metabolized
- Bacterial Biotransformation [17]: Compound metabolized
- Bacterial Biotransformation [18]: Compound metabolized
- Bacterial Biotransformation [19]: Compound NOT metabolized
- Bacterial Biotransformation [20]: Compound NOT metabolized
- Bacterial Biotransformation [21]: Compound NOT metabolized
- Bacterial Biotransformation [22]: Compound NOT metabolized
- Bacterial Biotransformation [23]: Compound NOT metabolized
- Bacterial Biotransformation [24]: Compound NOT metabolized
- Bacterial Biotransformation [25]: Compound NOT metabolized
- Bacterial Biotransformation [26]: Compound NOT metabolized
- Bacterial Biotransformation [27]: Compound NOT metabolized
- Bacterial Biotransformation [28]: Compound NOT metabolized
- Bacterial Biotransformation [29]: Compound NOT metabolized
- Bacterial Biotransformation [30]: Compound NOT metabolized
- Bacterial Biotransformation [31]: Compound metabolized
- Bacterial Biotransformation [32]: Compound metabolized
- Bacterial Biotransformation [33]: Compound NOT metabolized
- Bacterial Biotransformation [34]: Compound NOT metabolized
- Bacterial Biotransformation [35]: Compound NOT metabolized
- Bacterial Biotransformation [36]: Compound NOT metabolized
- Bacterial Biotransformation [37]: Compound NOT metabolized
- Bacterial Biotransformation [38]: Compound NOT metabolized
- Bacterial Biotransformation [39]: Compound NOT metabolized
- Bacterial Biotransformation [40]: Compound metabolized
- Bacterial Biotransformation [41]: Compound metabolized
- Bacterial Biotransformation [42]: Compound metabolized
- Bacterial Biotransformation [43]: Compound NOT metabolized
- Bacterial Biotransformation [44]: Compound metabolized
- Bacterial Biotransformation [45]: Compound NOT metabolized
SMILES: CC(C)OC(=O)C(C)(C)Oc1ccc(C(=O)c2ccc(Cl)cc2)cc1 [FENOFIBRATE]
